Experimental data reported in US5663154A, “2',3'-dideoxy-3'-fluoro-purine ribonucleosides” (Glaxo Wellcome Inc., priority 1992, dated 1997).
Values joined by “and” are separate entries in the source; they are usually repeats but may differ in a detail not shown here. Equal entries are not always repeated.

Columns and labels:
[1] = tested on: HIV; assay: Antiviral activity against HIV: reversal of cytopathic effect in MT4 cells, propidium iodide dye uptake; type: cell-based; conditions: Human immunodeficiency virus 1, 120 h, HIV-1 (strain 3B) or HIV-2 (Zagury strain), not stated which, 5 days
Method: Anti-HIV activity of compounds of formula (I) was determined using the method of Averett D. R., 1989, J. Virol. Methods, 23, pp263-276, by measuring the ability of the compound to reverse the cytopathic effect of HIV infection. This was determined by a quantitative assessment of cell growth monitored at the fifth day post infection by a propidium iodide dye uptake test. MT4 cells were incubated with 100XTCID50 of HIV-1 (strain 3B) or HIV-2 (Zagury strain) for one hour prior to addition of the compound in six different concentrations varying from 2 to 200 μM. The cells were allowed to incubate for five days at 37° C. On day 5, NP-40, a detergent, was added to a final concentration of 0.5% immediately prior to analysis. Cell number was determined using a method which measures the fluorescence of a dye (propidium iodide) which binds to DNA. Since the amount of DNA is directly proportional to cell number, this fluorescence assay is an indication of cell growth. While uninfected cells double in cell number several times during the five days duration of the assay, HIV-infected cells grow very little, if at all. A compound which reverses the cytopathic effect of HIV would allow for rapid cell growth, approaching that of the mock-infected cells. […]

[2] = tested on: Hepatitis B Virus (HBV); assay: Antiviral activity against HBV: extracellular HBV DNA from HepG2 2.2.15 cells; type: cell-based, human HBV; conditions: culture medium, treated at 25 μm (so in the source)
Method: Anti-HBV activity of compounds of formula (I) was determined using a method described by Korba B. E. and Milman G., Antiviral Research, 1991, Vol.15, pp217-228.
The assay utilises the human HBV producer cell line of HepG2, 2.2.15, described and characterized by Sells et al., PNAS 84, 1005 (1987) and J. Virol. […] This cell line was utilized in vitro to identify compounds with anti-HBV activity.
Supernatant media containing extracellular virion DNA (Dane particles) were harvested on days 0, 4 and 9, treated with proteinase K (1 mg/mL) and sodium dodecyl sulfate (1%), and incubated at 50° C. for one hour. DNA was extracted with equal volumes of phenol followed by chloroform and then precipitated using ammonium acetate and propanol. […] After precipitation by ammonium acetate and propanol, the intracellular DNA precipitate was dissolved, cut by restriction endonuclease, Hind III, applied co agarose gel and then treated as described by Southern to determine the quantity of replicative intermediate forms. The antiviral effect of the drug was determined by measuring at least a 100-fold reduction in the amount of Dane particles extruded into the culture medium and a similar decrease in the intracellular replicative intermediates.

For `CN(C)c1nc(N)nc2c1ncn2[C@H]1C[C@H](F)[C@@H](CO)O1` [Example 13, 2-Amino-9-(2,3-dideoxy-3-fluoro-β-D-erythro-pentofuranosyl)-6-(dimethylamino)-9H-purine], the IC50 [1] was 8 µM, the “Extracellular HBV DNA, Day 0” value ([2]; Day 0) was 60 pg/mL and 99 pg/mL and 77 pg/mL and 67 pg/mL and the “Extracellular HBV DNA, Day 4” value ([2]; Day 4) was 57 pg/mL and 33 pg/mL and 53 pg/mL and 51 pg/mL.
